Assays:
[1] = biological target: T1, GLP-1R (Homo sapiens, UniProt P43220); assay: Tag-lite binding assay (competition with GLP-1 receptors red agonist); details: for IC50: HEK293 GLP-1 cells labeled with SNAP-Lumi4-Tb, red agonist 4.917 nM, 23° C., 2 h; for Ki: calculated from sample IC50 and red agonist Kd
Method: B. Tag-Lite Binding Assay
The cell line was constructed by WuXi.
10) Dispense cells into cell plate (1.8 M cells/well in 2 ml medium of 6-well plate, total 4 wells).
Second Day: Tag-Lite Binding Assay
3) The cell culture medium is removed from the 6-well plate and then 1 mL of Tag-lite SNAP-Lumi4-Tb diluted in Tag-lite labeling medium are added gently on the cells.
7) The testing compounds and reference compound are serially diluted with 3-fold, 10 points using Echo, then transfer 100 nL compounds to the assay plate.
8) Add the labeled cells to each well according to the plate map, 10000 cells/10 uL/well. Centrifuge the plate at 1000 rpm for 1 min.
9) Incubate the plate at 23° C., 30 min.
10) Add 50 nL of red agonist (final conc.: 4.917 nM) to destination plate using Echo.
11) Incubate the plate at 23° C. for 2 h.
12) Read the plate on an HTRF® compatible reader (at 665 nm and 620 nm).
% Inhibition=100%−(Ratio−LC)/(HC−LC)*100%
HC: The average ratio of adding DMSO wells
LC: The average ratio of adding the top concentration of reference compounds wells
b) The “log (inhibitor) vs. response—Variable slope” model in GraphPad Prism 5.0 was used to fit the dose-response curve of each sample. The sample concentration (x) and its corresponding % Inhibition data (y) were substituted into the model. The sample concentration (abscissa) was x=log(x) transformed. The transformed xy was used as the sample curve to obtain the IC50.
c) Calculate the sample Ki according to the sample IC50 and red agonist Kd. S in the formula is the actual used concentration of red agonist.

[2] = biological target: T1, GLP-1R; assay: GLP-1R agonist cAMP stimulation assay (HTRF cAMP); format: cell-based; details: HEK293 cell line expressing GLP-1 target; HTRF cAMP agonist mode, 30 min at RT
Summary of the method: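 Read-out was HTRF (665/615 ratio), interpolated onto a cAMP standard curve and normalised to DMSO (0%) and maximal GLP-1(7-37) reference (100%) wells. Assay: GLP-1R cells at 1.0×E5/mL incubated with compound dilution series (3-fold, 10 points) for 30 min at room temperature before 60 min detection.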

T1 sequence (P43220 24-463): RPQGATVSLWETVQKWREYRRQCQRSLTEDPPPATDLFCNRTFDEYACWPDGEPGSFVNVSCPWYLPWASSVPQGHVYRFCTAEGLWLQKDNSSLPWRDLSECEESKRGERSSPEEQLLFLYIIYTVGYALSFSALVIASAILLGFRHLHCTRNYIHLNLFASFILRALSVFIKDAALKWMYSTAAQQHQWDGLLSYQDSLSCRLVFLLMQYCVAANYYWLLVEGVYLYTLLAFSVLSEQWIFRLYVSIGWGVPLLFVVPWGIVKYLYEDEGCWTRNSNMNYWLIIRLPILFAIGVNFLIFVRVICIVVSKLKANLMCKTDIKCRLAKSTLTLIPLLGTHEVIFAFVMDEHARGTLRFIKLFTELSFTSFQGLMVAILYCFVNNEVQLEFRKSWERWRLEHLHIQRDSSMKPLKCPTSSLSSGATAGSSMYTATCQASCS

CCn1cncc1Cn1c(Cc2c(F)cc(-c3cccc(OCc4ccc(Cl)cn4)n3)cc2F)nc2cc(NC(=O)c3cc(F)c4[nH]nc(C)c4c3)ccc21 [Compound 407]
IC50 [1]: 180 nM | Ki [1]: 110 nM | EC50 [2]: 0.16 nM

Cc1cc(NC(=O)c2ccc3c(c2)nc(CN2CCC(c4cccc(OCc5ccc(C#N)cc5F)n4)CC2)n3C[C@@H]2CCO2)cc2cn[nH]c12 [Compound 134]
IC50 [1]: 1840 nM | Ki [1]: 904 nM | EC50 [2]: 0.85 nM

Cc1n[nH]c2c(C)cc(C(=O)Nc3ccc4c(c3)nc(CN3CCC(c5cccc6c5OC(C)(c5ccc(Cl)cc5F)O6)CC3)n4CC3CCO3)cc12 (stereo not drawn) [Compound 341]
IC50 [1]: 158 nM | Ki [1]: 95.5 nM | EC50 [2]: 0.31 nM

Cc1n[nH]c2c(C)cc(NC(=O)c3ccc4c(c3)nc(CN3CC=C(c5cccc(OCc6ccc(C#N)c7cc(Cl)oc67)n5)CC3)n4C[C@@H]3CCO3)cc12 [Compound 354]
IC50 [1]: 2140 nM | Ki [1]: 1060 nM | EC50 [2]: 0.21 nM

Cc1cc(NC(=O)c2ccc3c(c2)nc(CN2CCC(c4cccc(OCc5ccc(Cl)cc5F)n4)CC2)n3C[C@@H]2CCO2)cc2cn[nH]c12 [Compound 80]
IC50 [1]: 2320 nM | Ki [1]: 1160 nM | EC50 [2]: 2.05 nM

Cc1n[nH]c2c(F)cc(C(=O)Nc3ccc4c(c3)nc(Cc3cc(F)c(-c5cccc(OCc6ccc(Cl)cc6F)n5)cc3F)n4C[C@@H]3CCO3)cc12 [Compound 413]
IC50 [1]: 28 nM | Ki [1]: 14.1 nM | EC50 [2]: 0.49 nM

Cc1cc(NC(=O)c2ccc3c(c2)nc(CN2CCC(c4cccc(OCc5ccc(Cl)cc5F)n4)CC2)n3C[C@@H]2CCO2)cc2c1NC(=O)C21CC1 [Compound 105]
IC50 [1]: 1940 nM | Ki [1]: 1000 nM | EC50 [2]: 0.78 nM

Cc1n[nH]c2ccc(C(=O)Nc3ccc4c(c3)nc(CN3CC=C(c5cccc(OCc6ccc(Cl)cn6)n5)CC3)n4C[C@@H]3CCO3)cc12 [Compound 391]
IC50 [1]: 116 nM | Ki [1]: 70.3 nM | EC50 [2]: 0.91 nM

Cc1n[nH]c2c(C)cc(C(=O)Nc3ccc4c(c3)nc(CN3CC=C(c5cccc(OCc6ccc(Cl)cc6F)n5)CC3)n4C[C@@H]3CCO3)cc12 [Compound 197]
IC50 [1]: 165 nM | Ki [1]: 84 nM | EC50 [2]: 0.19 nM

O=C(Nc1ccc2c(c1)nc(CN1CCC(c3cccc(OCc4ccc(Cl)cc4F)n3)CC1)n2C[C@@H]1CCO1)c1ccc2[nH]c(=O)[nH]c2c1 [Compound 85]
IC50 [1]: 143 nM | Ki [1]: 71.7 nM | EC50 [2]: 0.41 nM

Cc1n[nH]c2c(F)cc(C(=O)Nc3ccc4c(c3)nc(CN3CCC(c5cccc6c5OC(C)(c5ccc(Cl)cc5F)O6)CC3)n4CC3CCO3)cc12 (stereo not drawn) [Compound 340]
IC50 [1]: 123 nM | Ki [1]: 88.5 nM | EC50 [2]: 0.28 nM

CCn1cncc1Cn1c(Cc2cc(F)c(-c3cccc(OCc4ccc(Cl)cc4F)n3)cc2F)nc2cc(NC(=O)c3cc(F)c4[nH]nc(C)c4c3)ccc21 [Compound 414]
IC50 [1]: 31.7 nM | Ki [1]: 15.6 nM | EC50 [2]: 0.57 nM

Cc1n[nH]c2c(C)cc(NC(=O)c3ccc4c(c3)nc(CN3CCC(c5cccc6c5OC(C)(c5ccc(C#N)cc5F)O6)CC3)n4CC3CCO3)cc12 (stereo not drawn) [Compound 335]
IC50 [1]: 1110 nM | Ki [1]: 615 nM | EC50 [2]: 0.97 nM

Cc1n[nH]c2ccc(NC(=O)c3ccc4c(c3)nc(CN3CC=C(c5cccc(OCc6ccc(Cl)cn6)n5)CC3)n4C[C@@H]3CCO3)cc12 [Compound 145]
IC50 [1]: 1920 nM | Ki [1]: 956 nM | EC50 [2]: 0.45 nM

Cc1n[nH]c2ccc(NC(=O)c3ccc4c(c3)nc(CN3CC=C(c5cccc(OCc6ccc(Cl)cc6F)n5)CC3)n4C[C@@H]3CCO3)cc12 [Compound 3, (S)-2-((6-((4-chloro-2-fluorobenzyl)oxy)-3′,6′-dihydro-[2,4′-bipyridin]-1′(2′H)-yl)methyl)-N-(3-methyl-1H-indazol-5-yl)-1-(oxetan-2-ylmethyl)-1H-benzo[d]imidazole-5-carboxamide]
IC50 [1]: 1750 nM | Ki [1]: 876 nM | EC50 [2]: 0.56 nM

Cc1n[nH]c2c(F)cc(C(=O)Nc3ccc4c(c3)nc(Cc3cc(F)c(-c5cccc(OCc6ccc(Cl)cc6F)n5)cc3F)n4C3COC[C@H]3O)cc12 (stereo partly drawn) [Compound 417]
IC50 [1]: 137 nM | Ki [1]: 69.2 nM | EC50 [2]: 0.65 nM

Cc1n[nH]c2c(C)cc(NC(=O)c3ccc4c(c3)nc(CN3CCC(c5cccc(OCc6ccc(C#N)cc6F)n5)CC3)n4C[C@@H]3CCO3)cc12 [Compound 127]
IC50 [1]: 1250 nM | Ki [1]: 744 nM | EC50 [2]: 0.15 nM

CCn1cncc1Cn1c(Cc2c(F)cc(-c3cccc4c3OC(C)(c3ccc(Cl)cn3)O4)cc2F)nc2cc(NC(=O)c3cc(F)c4[nH]nc(C)c4c3)ccc21 (stereo not drawn) [Compound 409]
IC50 [1]: 486 nM | Ki [1]: 237 nM | EC50 [2]: 0.42 nM

Source: patent publication US20230271949A1, “GLP-1R MODULATING COMPOUNDS” (ASCLETIS BIOSCIENCE CO., LTD., priority 2022, published 2023)
